Reference: the supplement of paper PMC13380429

Experiments:
Details in all cases: 72 h
HepG2 [1] = assay: relative viability EC50 (midpoint between 100% and the lowest measured viability); higher = less toxic
Vero E6 [2] = assay: as above
U2OS [3] = assay: as above
Calu-3 [4] = assay: as above
HepG2 [5] = assay: drug sensitivity score (DSS) for viability; higher = more toxic; extreme values may be limits of the assay
Vero E6 [6] = assay: as above
U2OS [7] = assay: as above
Calu-3 [8] = assay: as above
Caco-2 [9] = assay: as above
HepG2 [10] = assay: cell viability relative to DMSO; higher = less toxic
Vero E6 [11] = assay: as above
U2OS [12] = assay: as above
Calu-3 [13] = assay: as above
Caco-2 [14] = assay: as above

Structure (SMILES) | relative viability EC50 (HepG2 [1]) [µM] | relative viability EC50 (Vero E6 [2]) [µM] | relative viability EC50 (U2OS [3]) [µM] | relative viability EC50 (Calu-3 [4]) [µM] | drug sensitivity score (HepG2 [5]) | drug sensitivity score (Vero E6 [6]) | drug sensitivity score (U2OS [7]) | drug sensitivity score (Calu-3 [8]) | drug sensitivity score (Caco-2 [9]) | cell viability (HepG2 [10]; 1 nM) [%] | cell viability (HepG2 [10]; 10 nM) [%] | cell viability (HepG2 [10]; 100 nM) [%] | cell viability (HepG2 [10]; 1000 nM) [%] | cell viability (HepG2 [10]; 10000 nM) [%] | cell viability (Vero E6 [11]; 1 nM) [%] | cell viability (Vero E6 [11]; 10 nM) [%] | cell viability (Vero E6 [11]; 100 nM) [%] | cell viability (Vero E6 [11]; 1000 nM) [%] | cell viability (Vero E6 [11]; 10000 nM) [%] | cell viability (U2OS [12]; 1 nM) [%] | cell viability (U2OS [12]; 10 nM) [%] | cell viability (U2OS [12]; 100 nM) [%] | cell viability (U2OS [12]; 1000 nM) [%] | cell viability (U2OS [12]; 10000 nM) [%] | cell viability (Calu-3 [13]; 1 nM) [%] | cell viability (Calu-3 [13]; 10 nM) [%] | cell viability (Calu-3 [13]; 100 nM) [%] | cell viability (Calu-3 [13]; 1000 nM) [%] | cell viability (Calu-3 [13]; 10000 nM) [%] | cell viability (Caco-2 [14]; 1 nM) [%] | cell viability (Caco-2 [14]; 10 nM) [%] | cell viability (Caco-2 [14]; 100 nM) [%] | cell viability (Caco-2 [14]; 1000 nM) [%] | cell viability (Caco-2 [14]; 10000 nM) [%]
CO[C@@H]1[C@H](N(C)C(=O)c2ccccc2)C[C@H]2O[C@]1(C)n1c3ccccc3c3c4c(c5c6ccccc6n2c5c31)C(=O)NC4 [midostaurin] | 0.369 | 0.793 | 0.897 | 0.885 | 9.3 | 7.8 | 8.8 | 7.1 | 4.7 | 97 | 94 | 93.9 | 53.9 | 44.3 | 110 | 101 | 94.3 | 63.9 | 36 | 102 | 99.2 | 103 | 59.6 | 29 | 89.5 | 88.5 | 102 | 67.3 | 43.3 | 108 | 111 | 97.4 | 74.9 | 63.3
CC[C@H]1[C@@H](O)[C@@H]2[C@H](CC[C@]3(C)[C@@H]([C@H](C)CCOS(=O)(=O)O)CC[C@@H]23)[C@@]2(C)CC[C@@H](O)C[C@@H]12 [INT-767] | > 10 | – | > 10 | > 10 | 0 | – | 0 | 0 | – | 115 | 118 | 96.2 | 99.4 | 111 | – | – | – | – | – | 102 | 98.1 | 102 | 101 | 101 | 110 | 107 | 108 | 105 | 99.5 | – | – | – | – | –
CC[C@H](CO)Nc1nc(Nc2cccc(-c3ccccn3)c2)c2ncn(C(C)C)c2n1 [DRF053-(R)] | – | > 10 | > 10 | > 10 | 2.5 | 1 | 0 | 0.4 | 2.4 | 98.8 | 108 | 107 | 94.5 | 66.2 | 92 | 92.3 | 92.7 | 89.8 | 81.7 | 102 | 101 | 94.7 | 99.6 | 94.4 | 94.7 | 94.9 | 90.7 | 104 | 80.3 | 99.6 | 86.9 | 91.2 | 93.2 | 67.4
NC(=O)[C@H]1CCS[C@@H]2C[C@]3(CCCN3C(=O)Cc3ccc(NC(=O)COc4ccc(Cl)cc4Cl)cc3)C(=O)N12 [ST-2825] | 2.05 | > 10 | – | > 10 | 4.6 | 0.5 | 2 | 0 | 3.5 | 96.5 | 101 | 103 | 91.7 | 40.5 | 101 | 92.2 | 94.8 | 88.1 | 86.6 | 96.4 | 104 | 97.6 | 103 | 55.6 | 106 | 96.9 | 96.1 | 99.8 | 91.7 | 84.7 | 90.3 | 91.9 | 92.9 | 56
OC(CNCC(O)C1CCc2cc(F)ccc2O1)C1CCc2cc(F)ccc2O1 (stereo unspecified) [nebivolol] | > 10 | > 10 | > 10 | > 10 | 0 | 0 | 0 | 0 | 1.9 | 107 | 112 | 110 | 98.4 | 88.9 | 100 | 102 | 91.7 | 94.2 | 95.1 | 97.2 | 94.3 | 93.9 | 99.8 | 99.6 | 94.9 | 93.2 | 103 | 105 | 92.7 | 114 | 102 | 95.1 | 89.7 | 72.8
CC(C)(C)n1nc(-c2ccc(Cl)cc2)c2c(N)ncnc21 [PP-2] | > 10 | 2.49 | > 10 | 1.77 | 0 | 3.5 | 1.4 | 5.4 | 4.2 | 107 | 98 | 92.6 | 103 | 90.7 | 99.4 | 93.5 | 102 | 95.6 | 47 | 93.4 | 98.4 | 96.7 | 89.7 | 77.3 | 104 | 104 | 84.9 | 87 | 37 | 92.3 | 98.6 | 100 | 88.2 | 54.2
Cc1ccc(C(C)C)c(O)c1 [thymol] | – | – | – | – | 0 | 0 | 0 | 0 | – | – | – | – | – | – | – | – | – | – | – | – | – | – | – | – | – | – | – | – | – | – | – | – | – | –
CO[C@@H]1[C@@H](O[C@@H]2O[C@H](C)[C@@H](O[C@H]3C[C@@](C)(O)[C@@H](OC(=O)CC(C)C)[C@H](C)O3)[C@H](N(C)C)[C@H]2O)[C@@H](CC=O)C[C@@H](C)[C@@H](O)/C=C/C=C/C[C@@H](C)OC(=O)C[C@H]1OC(C)=O [josamycin] | – | > 10 | > 10 | > 10 | 1.7 | 0 | 0 | 0 | 1.1 | 107 | 105 | 117 | 95 | 74.4 | 95 | 98.6 | 105 | 92.1 | 99.1 | 101 | 89.3 | 97.5 | 101 | 100 | 103 | 102 | 106 | 98.2 | 106 | 101 | 94.2 | 100 | 107 | 68
